Experimental data published in patent US12590071B2, “Hydrazone derivative in which terminal amine group is substituted with aryl group or heteroaryl group, and use thereof” (KOREA INSTITUTE OF SCIENCE AND TECHNOLOGY, priority 2018, dated 2026).

Legend:
tau protein = target: T1, tau protein (Homo sapiens, UniProt P10636); test: Tau protein aggregation inhibition in tau-BiFC cell model; assay type: cell-based; settings: tau-BiFC cells treated together with Forskolin, 48 hours
T1 construct: expressed in transfected cells
Outline: (§1)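 Tau-BiFC cells co-treated 48 h with Forskolin ([…]) and compound at 0.03–30 μM. BiFC fluorescence quantified by imaging, IC50 by nonlinear regression; cytotoxicity as Hoechst-stained nuclei count relative to Forskolin-only wells (100% survival).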

[1] = Liver microsomal stability (dog); assay type: in vitro ADME; settings: amount of substrate remaining; 1 μM, 0.25 mg/mL microsomes, 37° C., 30 minutes
Procedure: (§2) The liver microsomal stability of the compounds prepared according to Examples 1 to 171 was confirmed. Specifically, four kinds of liver microsomes (human, dog, rat, and mouse, each 0.25 mg/mL), a 0.1 M phosphate buffer solution (pH 7.4), and the compounds with a concentration of 1 μM were added, respectively. Then the mixture was cultured in advance at 37° C. for 5 minutes, and then further cultured at 37° C. for 30 minutes together with the addition of an NADPH generation system solution. Thereafter, a reaction was terminated by adding an acetonitrile solution containing an internal standard material (chloropropamide), centrifugal separation (14,000 rpm, 4° C.) was performed for 5 minutes, and then a supernatant was injected into an LC-MS/MS system. The substrate drugs were analyzed to evaluate the metabolic stability for 8 kinds of compounds.
(§3) The amount of substrate remaining through the reaction was analyzed using the Shimadzu Nexera XR system and TSQ vantage (Thermo). Kinetex XB-C18 (2.1 mm×100 mm, 2.6 μm, particle size; Phenomenex, USA) was used in an HPLC column, and (A) distilled water containing 0.1% formic acid and (B) acetonitrile containing 0.1% formic acid were used as mobile phases. Analyst software (version 1.6.3) and Xcalibur (version 1.6.1) were used for data analysis.

[2] = Liver microsomal stability (rat); assay type: in vitro ADME; settings: amount of substrate remaining; 1 μM, 0.25 mg/mL microsomes, 37° C., 30 minutes
Procedure: as §2, §3

CYP2D6 = target: T2, CYP2D6 (Homo sapiens, UniProt P10635); test: Inhibition of CYP coenzyme activity in human liver microsomes; assay type: in vitro ADME; settings: compound 10 PM (so in the source); human liver microsomes 0.25 mg/mL; substrate dextromethorphan; 15 minutes
T2 construct: human liver microsomes (0.25 mg/mL); from tissue; host or cells: human liver microsomes
Procedure: (§4) 5 The inhibition effects of CYP coenzyme activity by the compounds prepared according to Examples 1 to 171 was confirmed. Specifically, human liver microsomes (0.25 mg/mL), a 0.1 M phosphate buffer solution (pH 7.4), substrate drug cocktails (phenacetin 50 μM, diclofenac 10 μM, S-mephenytoin 100 μM, dextromethorphan 5 μM, and midazolam 2.5 μM) of five kinds of drug metabolism enzymes, and the compounds with a concentration of 0 μM or 10 PM were added, respectively. Then the mixture was cultured in advance at 37° C. for 5 minutes, and then further cultured at 37° C. for 15 minutes together with the addition of an NADPH generation system solution. Thereafter, a reaction was terminated by adding an acetonitrile solution containing an internal standard material (terfenadine), centrifugal separation (14,000 rpm, 4° C.) was performed for 5 minutes, and then a supernatant was injected into an LC-MS/MS system. Metabolites of the substrate drugs were simultaneously analyzed to evaluate the drug metabolism inhibition ability.
(§5) Metabolites of each CYP coenzyme indicator drug generated through the reaction were analyzed using the Shimadzu Nexera XR system and TSQ vantage (Thermo). Kinetex C18 (2.1 mm×100 mm, 2.6 μm, particle size; Phenomenex, USA) was used in an HPLC column, and (A) distilled water containing 0.1% formic acid and (B) acetonitrile containing 0.1% formic acid were used as mobile phases, and the gradient program shown in Table 2 was applied.
(§6) The generated metabolites were quantified using an MRM (multiple reaction monitoring) quantification mode, and Xcalibur (version 1.6.1) was used for data analysis.

CYP1A2 = target: T3, CYP1A2 (Homo sapiens, UniProt P05177); test: as above; assay type: in vitro ADME; settings: compound 10 PM (so in the source); human liver microsomes 0.25 mg/mL; substrate phenacetin; 15 minutes
T3 construct: human liver microsomes (0.25 mg/mL); from tissue; host or cells: human liver microsomes
T3 sequence (P05177 1-516): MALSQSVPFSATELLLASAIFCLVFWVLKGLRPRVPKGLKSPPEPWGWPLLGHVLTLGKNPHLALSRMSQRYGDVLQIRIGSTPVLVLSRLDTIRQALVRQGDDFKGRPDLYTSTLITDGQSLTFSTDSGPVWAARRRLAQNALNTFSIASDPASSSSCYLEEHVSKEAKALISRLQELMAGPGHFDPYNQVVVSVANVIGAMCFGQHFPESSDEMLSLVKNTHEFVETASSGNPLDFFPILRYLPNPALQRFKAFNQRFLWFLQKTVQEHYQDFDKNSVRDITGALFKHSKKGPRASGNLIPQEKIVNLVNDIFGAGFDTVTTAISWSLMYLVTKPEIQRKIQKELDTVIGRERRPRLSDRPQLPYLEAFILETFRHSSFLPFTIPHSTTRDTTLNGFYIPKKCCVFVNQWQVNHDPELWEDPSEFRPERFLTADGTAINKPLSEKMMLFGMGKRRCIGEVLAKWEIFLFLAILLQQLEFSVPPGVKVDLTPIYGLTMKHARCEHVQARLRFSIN
Procedure: as §4, §5, §6

CYP2C9 = target: T4, CYP2C9 (Homo sapiens, UniProt P11712); test: as above; assay type: in vitro ADME; settings: compound 10 PM (so in the source); human liver microsomes 0.25 mg/mL; substrate diclofenac; 15 minutes
T4 construct: human liver microsomes (0.25 mg/mL); from tissue; host or cells: human liver microsomes
Procedure: as §4, §5, §6

CYP2C19 = target: T5, CYP2C19 (Homo sapiens, UniProt P33261); test: as above; assay type: in vitro ADME; settings: compound 10 PM (so in the source); human liver microsomes 0.25 mg/mL; substrate S-mephenytoin; 15 minutes
T5 construct: human liver microsomes (0.25 mg/mL); from tissue; host or cells: human liver microsomes
Procedure: as §4, §5, §6

[3] = Liver microsomal stability (mouse); assay type: in vitro ADME; settings: amount of substrate remaining; 1 μM, 0.25 mg/mL microsomes, 37° C., 30 minutes
Procedure: as §2, §3

[4] = Liver microsomal stability (human); assay type: in vitro ADME; settings: amount of substrate remaining; 1 μM, 0.25 mg/mL microsomes, 37° C., 30 minutes
Procedure: as §2, §3

CYP3A4 = target: T6, CYP3A4 (Homo sapiens, UniProt P08684); test: Inhibition of CYP coenzyme activity in human liver microsomes; assay type: in vitro ADME; set-up: scale not given here; settings: compound 10 PM (so in the source); human liver microsomes 0.25 mg/mL; substrate midazolam; 15 minutes
T6 construct: human liver microsomes (0.25 mg/mL); from tissue; host or cells: human liver microsomes
Procedure: as §4, §5, §6

Tau-BiFC cells = test: Cytotoxicity (cell survival rate) in tau-BiFC cells; settings: group treated with Forskolin alone = 100%
Outline: as §1

T2 sequence (P10635 whole entry): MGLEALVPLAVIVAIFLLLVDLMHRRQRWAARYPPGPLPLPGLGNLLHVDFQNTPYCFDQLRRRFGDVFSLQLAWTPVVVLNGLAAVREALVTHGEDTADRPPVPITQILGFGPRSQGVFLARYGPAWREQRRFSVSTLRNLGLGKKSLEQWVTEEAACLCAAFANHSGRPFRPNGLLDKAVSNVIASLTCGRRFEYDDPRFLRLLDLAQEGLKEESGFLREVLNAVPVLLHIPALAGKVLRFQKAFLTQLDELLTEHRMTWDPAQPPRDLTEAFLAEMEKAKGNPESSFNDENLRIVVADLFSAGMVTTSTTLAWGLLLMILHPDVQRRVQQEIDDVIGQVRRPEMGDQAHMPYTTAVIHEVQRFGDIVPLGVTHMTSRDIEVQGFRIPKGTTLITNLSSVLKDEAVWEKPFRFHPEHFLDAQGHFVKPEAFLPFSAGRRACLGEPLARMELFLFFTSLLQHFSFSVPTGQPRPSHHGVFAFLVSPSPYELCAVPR
T4 sequence (P11712 whole entry): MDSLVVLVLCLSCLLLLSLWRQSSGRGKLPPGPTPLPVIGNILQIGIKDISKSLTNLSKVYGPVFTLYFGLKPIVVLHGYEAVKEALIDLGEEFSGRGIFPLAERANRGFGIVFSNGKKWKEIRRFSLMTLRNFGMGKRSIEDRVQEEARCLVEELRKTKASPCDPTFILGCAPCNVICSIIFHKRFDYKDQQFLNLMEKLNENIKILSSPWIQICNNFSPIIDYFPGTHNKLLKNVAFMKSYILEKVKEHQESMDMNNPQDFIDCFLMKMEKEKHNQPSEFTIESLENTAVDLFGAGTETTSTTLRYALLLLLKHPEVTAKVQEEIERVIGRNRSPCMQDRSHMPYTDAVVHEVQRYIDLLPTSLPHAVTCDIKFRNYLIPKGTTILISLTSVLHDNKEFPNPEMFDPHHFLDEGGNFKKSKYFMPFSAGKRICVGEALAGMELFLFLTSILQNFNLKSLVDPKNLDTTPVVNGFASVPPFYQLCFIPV
T5 sequence (P33261 whole entry): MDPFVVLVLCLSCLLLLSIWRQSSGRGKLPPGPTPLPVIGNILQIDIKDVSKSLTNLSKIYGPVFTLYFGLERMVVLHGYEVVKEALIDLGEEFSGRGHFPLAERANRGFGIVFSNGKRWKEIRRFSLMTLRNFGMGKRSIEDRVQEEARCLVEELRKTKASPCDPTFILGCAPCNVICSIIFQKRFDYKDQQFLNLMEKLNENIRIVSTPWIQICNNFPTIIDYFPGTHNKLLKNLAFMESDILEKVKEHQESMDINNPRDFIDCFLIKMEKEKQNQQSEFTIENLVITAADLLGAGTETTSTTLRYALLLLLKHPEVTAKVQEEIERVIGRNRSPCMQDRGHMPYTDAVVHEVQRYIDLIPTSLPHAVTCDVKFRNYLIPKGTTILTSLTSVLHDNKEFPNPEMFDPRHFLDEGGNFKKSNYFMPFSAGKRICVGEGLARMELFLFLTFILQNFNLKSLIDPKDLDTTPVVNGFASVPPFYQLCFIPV
T1 sequence (P10636 2-441 isoform P10636-8 limits assumed): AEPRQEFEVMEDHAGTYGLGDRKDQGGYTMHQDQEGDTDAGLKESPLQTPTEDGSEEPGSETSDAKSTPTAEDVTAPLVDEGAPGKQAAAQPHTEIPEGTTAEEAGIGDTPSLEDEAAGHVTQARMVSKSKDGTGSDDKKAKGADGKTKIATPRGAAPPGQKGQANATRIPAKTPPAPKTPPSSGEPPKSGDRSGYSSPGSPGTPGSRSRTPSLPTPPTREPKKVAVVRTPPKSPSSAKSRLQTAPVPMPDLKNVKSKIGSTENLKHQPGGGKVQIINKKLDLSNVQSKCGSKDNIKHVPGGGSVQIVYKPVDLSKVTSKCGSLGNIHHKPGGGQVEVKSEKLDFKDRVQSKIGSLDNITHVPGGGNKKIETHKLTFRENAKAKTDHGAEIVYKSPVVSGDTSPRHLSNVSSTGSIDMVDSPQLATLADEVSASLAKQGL
T6 sequence (P08684 whole entry): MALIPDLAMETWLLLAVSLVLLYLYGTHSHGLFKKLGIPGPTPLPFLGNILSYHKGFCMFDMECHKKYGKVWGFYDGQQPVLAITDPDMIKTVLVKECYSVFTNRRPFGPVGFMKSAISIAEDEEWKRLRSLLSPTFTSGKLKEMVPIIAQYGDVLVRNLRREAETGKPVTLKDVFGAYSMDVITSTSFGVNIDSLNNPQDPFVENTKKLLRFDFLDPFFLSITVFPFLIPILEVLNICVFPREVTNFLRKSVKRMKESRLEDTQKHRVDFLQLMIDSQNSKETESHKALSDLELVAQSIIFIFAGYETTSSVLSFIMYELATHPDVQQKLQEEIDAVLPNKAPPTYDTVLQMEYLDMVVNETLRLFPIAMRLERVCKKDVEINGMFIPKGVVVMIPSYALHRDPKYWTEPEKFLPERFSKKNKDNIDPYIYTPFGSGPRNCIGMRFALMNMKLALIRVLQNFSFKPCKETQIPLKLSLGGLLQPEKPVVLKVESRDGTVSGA

| SMILES | IC50 (tau protein) [nM] | liver microsomal stability, Dog (%) [1] [%] | liver microsomal stability, Rat (%) [2] [%] | inhibition effects of CYP coenzyme activity, CYP2D6 (CYP2D6) | inhibition effects of CYP coenzyme activity, CYP1A2 (CYP1A2) | inhibition effects of CYP coenzyme activity, CYP2C9 (CYP2C9) | inhibition effects of CYP coenzyme activity, CYP2C19 (CYP2C19) | liver microsomal stability, Mouse (%) [3] [%] | liver microsomal stability, Human (%) [4] [%] | inhibition effects of CYP coenzyme activity, CYP3A4 (CYP3A4) | Cell survival rate (% @ 10 μM) (Tau-BiFC cells) [%] |
| --- | --- | --- | --- | --- | --- | --- | --- | --- | --- | --- | --- |
| Cc1cnn(-c2ccc(NN=C(C#N)C#N)cc2)c1 [Compound 36, (4-(4-methyl-1H-pyrazol-1-yl)phenyl)carbonohydrazonoyl dicyanide] | 53 | 60.6 | 20.1 | 98.6 | 86 | 60.7 | >100 | 37.9 | 65.9 | >100 | 99.3 |
| N#CC(C#N)=NNc1ccc2nc(NC(=O)c3cnccn3)sc2c1 [Compound 92, (2-(pyrazine-2-carboxamido)benzo[d]thiazol-6-yl)carbonohydrazonoyl dicyanide] | 240 | 74.7 | 72.7 | 99.1 | 64.1 | 46.8 | 90.5 | 51.9 | 74.6 | 85.5 | 119.5 |
| N#CC(C#N)=NNc1ccc2scnc2c1 [Compound 61, benzo[d]thiazol-5-ylcarbonohydrazonoyl dicyanide] | 3100 | 32.6 | 66.2 | >100 | 45.1 | 75.5 | 93.6 | 33.5 | 70.4 | 90.1 | 111.7 |
| Cc1cncc(-c2nc3ccc(NN=C(C#N)C#N)cc3s2)c1 [Compound 110, (2-(5-methylpyridin-3-yl)benzo[d]thiazol-6-yl)carbonohydrazonoyl dicyanide] | 760 | 60.2 | 51.3 | 70.8 | 55 | 60.2 | 51.3 | 70.8 | 55 | 55 | 74.6 |
| Cc1cnc(-c2ccc(NN=C(C#N)C#N)cc2)nc1 [Compound 4, (4-(5-methylpyrimidin-2-yl)phenyl)carbonohydrazonoyl dicyanide] | 650 | 75 | 4.5 | 97.3 | 85.1 | 81.5 | 90.7 | 35.6 | 70.1 | >100 | 93.1 |
| N#CC(C#N)=NNc1cnc2[nH]cc(Cl)c2c1 [Compound 83, (3-chloro-1H-pyrrolo[2,3-b]pyridin-5-yl)carbonohydrazonoyl dicyanide] | 300 | 31.9 | 62.2 | 91.1 | 47.7 | 51 | 96.4 | 11 | 64.1 | 86.4 | 98 |
| N#CC(C#N)=NNc1cnc2[nH]ccc2c1 [Compound 72, (1H-pyrrolo[2,3-b]pyridin-5-yl)carbonohydrazonoyl dicyanide] | 35 | 84.8 | 72.8 | 98.9 | 85.8 | 88.7 | 97.8 | 58.6 | 86.3 | >100 | 89.5 |
| COc1cc(-c2nccc(C)n2)ccc1NN=C(C#N)C#N [Compound 42, (2-methoxy-4-(4-methylpyrimidin-2-yl)phenyl)carbonohydrazonoyl dicyanide] | 3000 | 30.7 | 46.5 | >100 | 83.6 | 88.8 | 96.2 | 47.9 | 53.4 | >100 | 128 |
| N#CC(C#N)=NNc1ccc2nc(NC(=O)c3ccccc3O)sc2c1 [Compound 87, (2-(2-hydroxybenzamido)benzo[d]thiazol-6-yl)carbonohydrazonoyl dicyanide] | 400 | 80.6 | 73.9 | 83.6 | 77 | 53.5 | 86.4 | 83.1 | 82.1 | 62.7 | 75.3 |
